Laboratory results reported in ChEMBL document CHEMBL1201862, “PubChem BioAssay data set” (2004).
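Protocol summary: plate cells (96-well), add compound at 5 concentrations, incubate 48 h, interpolate endpoints linearly. The concentration for 50% growth inhibition is given as GI50.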 Calls of active or inactive are those of the source. Rule as the data show it: active = GI50 up to about 1.1 µM and inactive = higher.

How the values were obtained:
Assay in all cases: NCI-60 cell line screen, 48 h
COLO 205 = tested on: COLO 205
EKVX = tested on: EKVX
HOP-62 = tested on: HOP-62
IGROV-1 = tested on: IGROV-1
KM12 = tested on: KM12
MCF7 = tested on: MCF7
MDA-MB-435 = tested on: MDA-MB-435
MOLT-4 = tested on: MOLT-4
NCI-H226 = tested on: NCI-H226
NCI-H460 = tested on: NCI-H460
PC-3 = tested on: PC-3
SF-539 = tested on: SF-539
T47D = tested on: T47D
CCRF-CEM = tested on: CCRF-CEM
HL-60 = tested on: HL-60
SNB-75 = tested on: SNB-75
LOX IMVI = tested on: LOX IMVI
Malme-3M = tested on: Malme-3M
RPMI-8226 = tested on: RPMI-8226

| Structure (SMILES) | GI50 (COLO 205) | GI50 (EKVX) | GI50 (HOP-62) | GI50 (IGROV-1) | GI50 (KM12) | GI50 (MCF7) | GI50 (MDA-MB-435) | GI50 (MOLT-4) | GI50 (NCI-H226) | GI50 (NCI-H460) | GI50 (PC-3) | GI50 (SF-539) | GI50 (T47D) | GI50 (CCRF-CEM) | GI50 (HL-60) | GI50 (SNB-75) | GI50 (LOX IMVI) | GI50 (Malme-3M) | GI50 (RPMI-8226) |
| --- | --- | --- | --- | --- | --- | --- | --- | --- | --- | --- | --- | --- | --- | --- | --- | --- | --- | --- | --- |
| COC(=O)CC[N+]1=CCC(c2ccccc2)(c2ccccc2)O1 | > 100 µM (inactive) | > 100 µM (inactive) | > 100 µM (inactive) | > 100 µM (inactive) | > 100 µM (inactive) | > 100 µM (inactive) | 41.8 µM (inactive) | > 100 µM (inactive) | > 100 µM (inactive) | > 100 µM (inactive) | > 100 µM (inactive) | > 100 µM (inactive) | > 100 µM (inactive) | – | – | – | – | – | – |
| O/N=N\c1nc(-c2cccnc2)nc2ccccc12 | 75.5 µM (inactive) | > 100 µM (inactive) | > 100 µM (inactive) | > 100 µM (inactive) | > 100 µM (inactive) | > 100 µM (inactive) | – | > 100 µM (inactive) | > 100 µM (inactive) | > 100 µM (inactive) | > 100 µM (inactive) | > 100 µM (inactive) | > 100 µM (inactive) | > 100 µM (inactive) | > 100 µM (inactive) | 33.3 µM (inactive) | – | – | – |
| O=C1N[C@H]2C(=O)c3c(Br)sc(Br)c3[C@H]2O1 | 3.52 µM (inactive) | 5.69 µM (inactive) | 16.2 µM (inactive) | 11.4 µM (inactive) | 19 µM (inactive) | 10.7 µM (inactive) | 3.89 µM (inactive) | 2.25 µM (inactive) | 18.1 µM (inactive) | 16.8 µM (inactive) | 4.95 µM (inactive) | 17.4 µM (inactive) | 14.3 µM (inactive) | 1.31 µM (inactive) | – | 16.5 µM (inactive) | 3.08 µM (inactive) | 4.75 µM (inactive) | 4.44 µM (inactive) |
| O=C(Cc1nc2ccc([N+](=O)[O-])cc2nc1O)C(=O)Nc1cc(Cl)c(Cl)cc1Cl | > 100 µM (inactive) | 54.3 µM (inactive) | > 100 µM (inactive) | > 100 µM (inactive) | 65.6 µM (inactive) | > 100 µM (inactive) | > 100 µM (inactive) | 51.4 µM (inactive) | > 100 µM (inactive) | > 100 µM (inactive) | > 100 µM (inactive) | > 100 µM (inactive) | > 100 µM (inactive) | > 100 µM (inactive) | – | > 100 µM (inactive) | 69 µM (inactive) | > 100 µM (inactive) | – |
| O=C(/C=C/c1cccs1)c1ccc(Cl)cc1 | > 100 µM (inactive) | > 100 µM (inactive) | > 100 µM (inactive) | > 100 µM (inactive) | 43.9 µM (inactive) | 21.9 µM (inactive) | – | 23.3 µM (inactive) | 67.8 µM (inactive) | > 100 µM (inactive) | > 100 µM (inactive) | > 100 µM (inactive) | 56.1 µM (inactive) | 29.9 µM (inactive) | 28.6 µM (inactive) | > 100 µM (inactive) | – | > 100 µM (inactive) | 22.2 µM (inactive) |
| Cc1ccc(OCC2OC(n3cnc4nc(Nc5ccc(Cl)c(Cl)c5)nc(Cl)c43)CC2Oc2ccc(C)cc2)cc1 (centres undefined) | > 100 µM (inactive) | 53.7 µM (inactive) | > 100 µM (inactive) | 0.855 µM (active) | > 100 µM (inactive) | > 100 µM (inactive) | > 100 µM (inactive) | > 100 µM (inactive) | 46.9 µM (inactive) | 27.2 µM (inactive) | > 100 µM (inactive) | – | > 100 µM (inactive) | > 100 µM (inactive) | – | > 100 µM (inactive) | – | > 100 µM (inactive) | > 100 µM (inactive) |
| COC(=O)C1C(O)C(C(=O)OC)C(C)N(C)C1C (centres undefined) | > 100 µM (inactive) | > 100 µM (inactive) | > 100 µM (inactive) | > 100 µM (inactive) | > 100 µM (inactive) | > 100 µM (inactive) | > 100 µM (inactive) | > 100 µM (inactive) | > 100 µM (inactive) | > 100 µM (inactive) | > 100 µM (inactive) | > 100 µM (inactive) | – | > 100 µM (inactive) | > 100 µM (inactive) | – | > 100 µM (inactive) | – | > 100 µM (inactive) |
| COC(=O)/C=C/COCC1C2CCC(=O)C21 (centres undefined) | > 100 µM (inactive) | > 100 µM (inactive) | > 100 µM (inactive) | > 100 µM (inactive) | > 100 µM (inactive) | > 100 µM (inactive) | > 100 µM (inactive) | > 100 µM (inactive) | > 100 µM (inactive) | > 100 µM (inactive) | > 100 µM (inactive) | > 100 µM (inactive) | – | > 100 µM (inactive) | – | > 100 µM (inactive) | > 100 µM (inactive) | > 100 µM (inactive) | > 100 µM (inactive) |
| CCOc1ncn(-c2ccc(NC(=S)Nc3cnccn3)cc2)n1 | – | > 10 µM (inactive) | – | > 10 µM (inactive) | > 10 µM (inactive) | > 10 µM (inactive) | > 10 µM (inactive) | > 10 µM (inactive) | > 10 µM (inactive) | > 10 µM (inactive) | – | > 10 µM (inactive) | > 10 µM (inactive) | > 10 µM (inactive) | > 10 µM (inactive) | > 10 µM (inactive) | – | > 10 µM (inactive) | – |
| COC(=O)NC(Nc1ccccn1)(C(F)(F)F)C(F)(F)F | – | > 100 µM (inactive) | > 100 µM (inactive) | > 100 µM (inactive) | > 100 µM (inactive) | > 100 µM (inactive) | > 100 µM (inactive) | > 100 µM (inactive) | > 100 µM (inactive) | > 100 µM (inactive) | – | > 100 µM (inactive) | > 100 µM (inactive) | > 100 µM (inactive) | > 100 µM (inactive) | > 100 µM (inactive) | > 100 µM (inactive) | > 100 µM (inactive) | > 100 µM (inactive) |
| O=C(O)c1ccc(Nc2nc3cc(C(F)(F)F)ccc3nc2C(=O)O)cc1 | > 100 µM (inactive) | > 100 µM (inactive) | > 100 µM (inactive) | > 100 µM (inactive) | > 100 µM (inactive) | > 100 µM (inactive) | > 100 µM (inactive) | > 100 µM (inactive) | > 100 µM (inactive) | > 100 µM (inactive) | > 100 µM (inactive) | – | – | – | > 100 µM (inactive) | > 100 µM (inactive) | > 100 µM (inactive) | > 100 µM (inactive) | – |
| Cc1cccc2c(O)c3c(O)cc(O)cc3nc12 | > 10 µM (inactive) | > 10 µM (inactive) | > 10 µM (inactive) | > 10 µM (inactive) | > 10 µM (inactive) | > 10 µM (inactive) | > 10 µM (inactive) | > 10 µM (inactive) | > 10 µM (inactive) | > 10 µM (inactive) | > 10 µM (inactive) | 6.12 µM (inactive) | > 10 µM (inactive) | > 10 µM (inactive) | – | 7.24 µM (inactive) | > 10 µM (inactive) | > 10 µM (inactive) | > 10 µM (inactive) |
| Cc1ccc(S(=O)(=O)Nc2nnc(S(N)(=O)=O)s2)cc1 | > 100 µM (inactive) | > 100 µM (inactive) | > 100 µM (inactive) | – | > 100 µM (inactive) | > 100 µM (inactive) | > 100 µM (inactive) | > 100 µM (inactive) | > 100 µM (inactive) | > 100 µM (inactive) | – | – | > 100 µM (inactive) | – | – | – | > 100 µM (inactive) | > 100 µM (inactive) | > 100 µM (inactive) |
| CC(NC(=O)C(N)Cc1ccc(O)cn1)C(=O)O (centres undefined) | > 100 µM (inactive) | > 100 µM (inactive) | > 100 µM (inactive) | > 100 µM (inactive) | > 100 µM (inactive) | > 100 µM (inactive) | > 100 µM (inactive) | > 100 µM (inactive) | > 100 µM (inactive) | > 100 µM (inactive) | > 100 µM (inactive) | > 100 µM (inactive) | – | > 100 µM (inactive) | > 100 µM (inactive) | – | > 100 µM (inactive) | > 100 µM (inactive) | > 100 µM (inactive) |
| Cc1ccc(NCCO)cc1 | > 100 µM (inactive) | > 100 µM (inactive) | > 100 µM (inactive) | > 100 µM (inactive) | > 100 µM (inactive) | – | – | 85.1 µM (inactive) | > 100 µM (inactive) | > 100 µM (inactive) | – | > 100 µM (inactive) | – | > 100 µM (inactive) | > 100 µM (inactive) | > 100 µM (inactive) | > 100 µM (inactive) | > 100 µM (inactive) | > 100 µM (inactive) |
| CC(=O)/C(=C/NC(=S)N/N=C1\C(=O)Nc2ccccc21)C(=O)Nc1ccccc1C | > 100 µM (inactive) | 70.6 µM (inactive) | > 100 µM (inactive) | 95.3 µM (inactive) | 98.9 µM (inactive) | – | > 100 µM (inactive) | > 100 µM (inactive) | > 100 µM (inactive) | > 100 µM (inactive) | – | > 100 µM (inactive) | 27.5 µM (inactive) | – | 41 µM (inactive) | 52.4 µM (inactive) | 63.8 µM (inactive) | – | – |
| CN(C)CCNC(=O)c1cccc2c(NC(CCC(N)=O)C(=O)O)c3ccccc3nc12 (centres undefined) | 4.8 µM (inactive) | 14.5 µM (inactive) | 6.4 µM (inactive) | 5.25 µM (inactive) | 7.78 µM (inactive) | 4.55 µM (inactive) | 6.14 µM (inactive) | 3.29 µM (inactive) | 4.95 µM (inactive) | 11.1 µM (inactive) | 5.43 µM (inactive) | 5.55 µM (inactive) | – | 18.5 µM (inactive) | – | 13.4 µM (inactive) | 5.48 µM (inactive) | 5.56 µM (inactive) | 9.57 µM (inactive) |
